logD data for 1 compound are collected here from article PMC6332508, “A Promising PET Tracer for Imaging of α7 Nicotinic Acetylcholine Receptors in the Brain: Design, Synthesis, and in Vivo Evaluation of a Dibenzothiophene-Based Radioligand” (Molecules, 2015).

The data set in a line: Distribution coefficient, shake-flask method, n-octanol/PBS. Format: physicochemical. Particulars: n-octanol/phosphate-buffered saline; n-octanol-PBS, pH 7.2, shake-flask, n = 3; read-out: log D7.2. As to the method: in vitro radiochemical stability of [^18F]10a was investigated in 0.9% NaCl solution, PBS (pH 7.2), and 0.01 M Tris-HCl (pH 7.4 at 21 °C) at 40 °C and in EtOH at room temperature for up to 90 min. Samples were taken at 15, 30, 60, and 90 min of incubation time and analyzed by radio-TLC and radio-HPLC. Log D7.2 of [^18F]10a was experimentally determined in n-octanol/phosphate-buffered saline (PBS; 0.01 M, pH 7.2) at room temperature by the shake-flask method in multiple distribution. Measurement was performed twice in triplicate.

The structures appear in SMILES notation.

As for `O=S1(=O)c2ccc([18F])cc2-c2ccc(N3CCN4CCC3CC4)cc21` [[^18F]10a], the logD is 1.3 ± 0.1.
